We go through four compounds from patent publication US20160135468A1, “A Composition for Enhanced Biocidal Activity and Water Purification Device on the Same” (INDIAN INSTITUTE OF TECHNOLOGY, priority 2013, published 2016).

In series [1] the test system is E. coli. Put plainly: Bacterial killing efficiency at low silver ion concentration (Example 3). The format is cell-based.
Text: This example describes the method of measuring the bacterial killing efficiency of the composition in comparison to silver ion, when low concentration of silver ion is used. […] Synthetic challenge water contains all the ions as prescribed by US NSF for challenge water studies. Source of carbonate ion is chosen one amongst the following: sodium carbonate, potassium carbonate or ammonium carbonate or a combination thereof. Source of Ag^+ is chosen one amongst the following: silver nitrate, silver acetate, silver sulfate, silver fluoride or a combination thereof. After one hour of standing, 1 mL from the samples was plated along with agar on a sterile petridish using pour plate method.
For series [2], the system named is S. aureus (MTCC 96). Put plainly: S. aureus killing efficiency (Example 6). The format is cell-based.
Experimental: In an aspect, 100 mL of synthetic water (typically containing E-coli concentration of 1×10^5 CFU/mL, unless otherwise mentioned) was separately shaken with Ag^+ and Ag^+/CO3^2−. Synthetic challenge water contains all the ions as prescribed by US NSF for challenge water studies. Source of carbonate ion is chosen one amongst the following: sodium carbonate, potassium carbonate or ammonium carbonate or a combination thereof. Source of Ag^+ is chosen one amongst the following: silver nitrate, silver acetate, silver sulfate, silver fluoride or a combination thereof. 1 mL of the sample was plated along with nutrient agar on a sterile petridish using the pour plate method after 1 h. After 48 hours of incubation of plating at 37° C., the colonies were counted and recorded.
Series [3] deals with MS2 bacteriophage. As to the kind of experiment: Kinetics of virus killing efficiency (Example 10). The format is cell-based.
Experimental: Synthetic water having the TDS between 300-500 ppm and pH=7±0.2 was used in the study. […] 1 mL of the sample along with soft agar was plated on a sterile petridish using plaque assay method after 15 min, 30 min, 45 min and 60 min of contact time.
Series [4] concerns MS2 bacteriophage. As to the kind of experiment: Virus killing efficiency, plaque assay (Example 9). In kind it is cell-based.
For series [5] the following is noted: 25° C.; cited from earlier work.
In series [6] the test system is MS2 bacteriophage. Put plainly: Virus killing efficiency at higher virus input load (Example 11). The format is cell-based. The note with it: input virus concentration higher than 10^3 PFU/mL; silver ion alone.
Experimental: Synthetic challenge water contains all the ions as prescribed by US NSF for challenge water studies. […] After one hour of contact time, 1 mL of the sample along with soft agar was plated on a sterile petridish using plaque assay method.
Series [7] deals with E-coli. Put plainly: Sterility of stored treated water (Example 7). The note with it: 24 h storage. The format is cell-based.
Series [8] deals with E. coli. As to the kind of experiment: Bacterial killing efficiency with varying humic acid (Example 4). The format is cell-based.
Experimental: In an aspect, 100 mL of synthetic water samples (typically containing bacterial concentration of 1×10^5 CFU/mL, unless otherwise mentioned) containing varying concentrations of humic acid were separately shaken with Ag^+(50 ppb) and Ag^+(50 ppb)/CO3^2−(20 ppm). Synthetic challenge water contains all the ions as prescribed by US NSF for challenge water studies. […] After one hour of standing, 1 mL from the samples was plated along with agar on a sterile petridish using pour plate method.
The subject of series [9] is E. coli. Put plainly: Bacterial killing efficiency in sea salt containing water (Example 2). In kind it is cell-based. The note with it: Ag^+ 50 ppb (composition with CO3^2− 20 ppm), input 1×10^5 CFU/mL, 1 h standing.
Experimental: In an aspect, 100 mL of synthetic water (typically containing E. coli concentration of 1×10^5 CFU/mL, unless otherwise mentioned) with Ag^+ (50 ppb) and Ag^+ (50 ppb)/CO3^2− (20 ppm) was separately shaken with different concentrations of sea salt. […] Synthetic challenge water contains all the ions as prescribed by US NSF for challenge water studies. Typically, one hour of standing time, unless otherwise mentioned, is provided for the exposure of microorganisms to the biocidal composition. After one hour of standing, 1 mL from the samples was plated along with agar on a sterile petridish using the pour plate method.
The test system of series [10] is S. aureus. The note with it: 50 ppb silver ion; input 10^7 CFU/mL; cited from earlier work.
In series [11] the test system is E. coli. The note with it: cited from earlier work.
In series [12] the test system is E-coli. Put plainly: Bacterial killing efficiency of M^n+ and M^n+/CO3^2− (Example 5). The note with it: iron 200 ppb, zinc 1 ppm, carbonate 20 ppm; input 1×10^5 CFU/mL. The format is cell-based.

In the case of `O=C(O)O` [CO3^2−, carbonate], the “reduction in bacterial count by itself” value in [1] (CO3^2− without Ag^+) was “doesn't provide a significant reduction in bacterial count”. Further, the viable bacteria count in [2] (20 ppm CO3^2− alone) is listed as > 10^5 CFU/mL. Besides, the virus killing efficiency in series [3] (20 ppm CO3^2−, standing time 1 h) was 20%; in [4] (20 ppm CO3^2−, no Ag^+, 1 h), 25%.

On to `[Cl][Ag]` [AgCl], for which, in series [5], the solubility in water was 1.9 µg/mL.

In the case of `[Ag+]` [Ag^+, silver ion], the virus killing ability result in series [6] is on record as “unable to obtain complete virus killing ability”. The “bacterial count after storage” value is > 10^3 CFU/mL in series [7] (lower silver concentrations (<50 ppb)) and 0 CFU/mL in [7] (silver ion 50 ppb). Also, the “humic acid concentration up to which bacterial count is handled” value in [8] (50 ppb Ag^+) is recorded as “up to 5 ppm”. In addition, the output count result in [8] (humic acid 50 ppm, Ag^+ 50 ppb (composition with CO3^2− 20 ppm), input 1×10^5 CFU/mL) is reported as “near to the input concentration”. The “residual viable bacterial count” value in [1] (50 ppb Ag^+, input 1×10^5 CFU/mL, 1 h) is given as 10-50 CFU/mL. The “antibacterial activity, log reduction” value in [1] (silver ion below 40-50 ppb, synthetic challenge water) is given as 2-3 log reduction. In series [2] (silver ion up to 50 ppb, 1 h standing), the S. aureus concentration is reported as ≥ 10^3 CFU/mL. Also, the output bacterial count was 2000 CFU/mL in [9] (sea salt 850 ppm) and 10,000 CFU/mL in series [9] (sea salt 1100 ppm). The “time at which virus killing efficiency reaches a saturation value” in [3] (Ag^+ 50 ppb alone) was determined as 1 h. The “time to inactivate S. aureus” value in series [10] is listed as “over 24 h”. In series [11], the “minimum concentration of silver necessary for antibacterial activity” value is listed as 40-50 ppb. For the same compound, in series [4] (higher silver ion concentration without SiO3^2− or CO3^2−), the residual virus result is reported as “residual virus concentration is present”.

As to `[Fe+3]` [Fe^3+], in [12], the “reduction in bacterial count” value is “does not offer any reduction in bacterial count”.
